What all share (format): functional, cell-based
The subject of test [1] is SF-268. As to the kind of experiment: Inhibition of endogenously-secreted VEGF-A in human SF-268 cells incubated for 24 hrs by ELISA assay. The note with it: dose 30-100 nM. (An ELISA detects its analyte on a solid surface through an enzyme-linked reagent.)
The subject of test [2] is U-87 MG. Put plainly: Antiproliferative activity against human U-87 MG cells expressing GLuc assessed as as inhibition of GLuc secretion incubated for 18 hrs by CellTiter-Glo Luminescent Cell Viability Assay. Conditions: U-87MG ATCC.
Test [3] relates to U-87 MG. Put plainly: Antiproliferative activity against human U-87MG cells expressing GLuc assessed as cell viability at 0.0003 to 300 nM incubated for 18 hrs by CellTiter-Glo Luminescent Cell Viability Assay. The note with it: U-87MG ATCC, dose 0.0003-300 nM.
For test [4], the system named is U-87 MG. As to the kind of experiment: Antiproliferative activity against human U87 cells expressing GLuc assessed as inhibition of GLuc secretion incubated for 18 hrs by CellTiter-Glo Luminescent Cell Viability Assay. Conditions: U-87MG ATCC, dose 0.1-10 µM. (In general: Cellular ATP, detected with luciferase, serves as a proxy for viable cell number.)
Test [5] relates to SF-268. Put plainly: Downregulation of VEGF-A protein secretion level in human SF-268 cells for 24 hrs by ELISA analysis. The note with it: dose 30-100 nM.
For test [6], the system named is SF-268. As to the kind of experiment: Downregulation of VEGF-A protein secretion level in human SF-268 cells at 30 to 300 nM for 24 hrs by ELISA analysis. The note with it: dose 30-300 nM.

Each structure is given as a SMILES string. Calls of active or inactive are those of the source. The rule behind the calls is not given here. Positions of bridges follow the written chain, without caps; N, C: chain ends. Non-standard residues stand in square brackets, D forms with d. Residues, ends and D or L forms follow the SMILES beside them. *: point of attachment. NMe2Val = CC(C)[C@@H](C(=O)*)N(C)C; NMeLys(Me) = CNCCCC[C@H](NC)C(=O)O; NMeI = CC[C@H](C)[C@H](NC)C(=O)O; NMeT = CN[C@H](C(=O)O)[C@@H](C)O; NMeL = CN[C@@H](CC(C)C)C(=O)O; NMeDap = CN[C@@H](CN)C(=O)O; dHiv = CC(C)[C@@H](O)C(=O)O; NMeA = CN[C@@H](C)C(=O)O; dNMeA = CN[C@H](C)C(=O)O

Turning to `CC[C@H](C)[C@H]1C(=O)N[C@@H](C)C(=O)N(C)[C@@H](CC(C)C)C(=O)N[C@@H](Cc2ccc(OC)cc2)C(=O)N(C)[C@H](C)C(=O)N[C@H](C)[C@H](N(C)C(=O)[C@H](CC(C)C)N(C)C(=O)[C@H](COC)N(C)C(=O)[C@H](OC(=O)[C@H](C(C)C)N(C)C)C(C)C)C(=O)N(C)[C@@H](COC)C(=O)N1C`, the inhibition result in the test on SF-268 [1] and in the test on U-87 MG [2] was “Dose-Dependent Effect” each time. The inhibition result in the test on U-87 MG [3] is “inactive”. For the same compound, the Activity result with U-87 MG [4] and with SF-268 [5] was “Dose-Dependent Effect” in each case.
For the compound `CC[C@H](C)[C@H]1C(=O)N[C@@H](C)C(=O)N(C)[C@@H](CC(C)C)C(=O)N[C@@H](Cc2ccc(OC)cc2)C(=O)N(C)[C@H](C)C(=O)N[C@H](C)[C@H](N(C)C(=O)[C@H](CC(C)C)N(C)C(=O)[C@H](C)N(C)C(=O)[C@H](OC(=O)[C@H](C(C)C)N(C)C)C(C)C)C(=O)N(C)[C@@H](C)C(=O)N1C`, the inhibition entry in the test with U-87 MG [2] is “Dose-Dependent Effect”. Moreover, the inhibition result with U-87 MG [3] is “inactive”. The Activity entry in the test with U-87 MG [4] is “Dose-Dependent Effect”.
Take `CC[C@H](C)[C@H]1C(=O)N[C@@H](C)C(=O)N(C)[C@@H](CC(C)C)C(=O)N[C@@H](Cc2ccc(-c3ccccc3)cc2)C(=O)N(C)[C@H](C)C(=O)N[C@H](C)[C@H](N(C)C(=O)[C@H](CC(C)C)N(C)C(=O)[C@H](COC)N(C)C(=O)[C@H](OC(=O)[C@H](C(C)C)N(C)C)C(C)C)C(=O)N(C)[C@@H](COC)C(=O)N1C`: in the test with U-87 MG [2], the inhibition entry is “Dose-Dependent Effect”. The inhibition result in the test on U-87 MG [3] is “inactive”. The Activity entry with U-87 MG [4] was “Dose-Dependent Effect”.
Take `CC[C@H](C)[C@H]1C(=O)N[C@@H](C)C(=O)N(C)[C@@H](CC(C)C)C(=O)N[C@@H](Cc2ccc(OC)cc2)C(=O)N(C)[C@H](C)C(=O)N(C)C[C@H](N(C)C(=O)[C@H](CC(C)C)N(C)C(=O)[C@H](C)N(C)C(=O)[C@H](OC(=O)[C@H](C(C)C)N(C)C)C(C)C)C(=O)N(C)[C@@H](C)C(=O)N1C`: in the test on U-87 MG [2], the inhibition result was “Dose-Dependent Effect”. For the same compound, the inhibition result in the test with U-87 MG [3] is “inactive”.
Regarding `CC[C@H](C)[C@H]1C(=O)N[C@@H](C)C(=O)N(C)[C@@H](CC(C)C)C(=O)N[C@@H](Cc2ccc(OC)cc2)C(=O)N(C)[C@H](C)CC[C@H](C)[C@H](N(C)C(=O)[C@H](CC(C)C)N(C)C(=O)[C@H](C)N(C)C(=O)[C@H](OC(=O)[C@H](C(C)C)N(C)C)C(C)C)C(=O)N(C)[C@@H](C)C(=O)N1C`, the inhibition entry with SF-268 [1] and in the test with U-87 MG [2] was “Dose-Dependent Effect” throughout. For the same compound, in the test on U-87 MG [3], the inhibition result was “inactive”. Moreover, the Activity entry in the test on U-87 MG [4] and with SF-268 [6] was “Dose-Dependent Effect” in each case.
For `CC[C@H](C)[C@H]1C(=O)N[C@@H](C)C(=O)N(C)[C@@H](CC(C)C)C(=O)N[C@@H](Cc2ccc(OC)cc2)C(=O)N(C)[C@H](C)/C=C/[C@H](C)[C@H](N(C)C(=O)[C@H](CC(C)C)N(C)C(=O)[C@H](C)N(C)C(=O)[C@H](OC(=O)[C@H](C(C)C)N(C)C)C(C)C)C(=O)N(C)[C@@H](C)C(=O)N1C`, the inhibition entry with U-87 MG [2] was “Dose-Dependent Effect”. Besides, the inhibition result with U-87 MG [3] is “inactive”. The Activity entry with U-87 MG [4] is “Dose-Dependent Effect”.
For `CC[C@H](C)[C@H]1C(=O)N[C@@H](C)C(=O)N(C)[C@@H](CC(C)C)C(=O)N[C@@H](Cc2ccc(OC)cc2)C(=O)N(C)CCCC[C@H](N(C)C(=O)[C@H](CC(C)C)N(C)C(=O)[C@H](C)N(C)C(=O)[C@H](OC(=O)[C@H](C(C)C)N(C)C)C(C)C)C(=O)N(C)[C@@H](C)C(=O)N1C` (NMe2Val-[dHiv][NMeA][NMeL][NMeLys(Me)][NMeA][NMeI]A[NMeL]Y(Me); lactam 4-C), the inhibition result in the test on SF-268 [1] and in the test with U-87 MG [2] was “Dose-Dependent Effect” in each case. The inhibition entry with U-87 MG [3] is “inactive”. In addition, the Activity result in the test on U-87 MG [4] and in the test on SF-268 [6] was “Dose-Dependent Effect” throughout.
Turning to `CC[C@H](C)[C@H]1C(=O)N[C@@H](C)C(=O)N(C)[C@@H](CC(C)C)C(=O)N[C@@H](Cc2ccc(OC)cc2)C(=O)N(C)[C@H](C)C(=O)NC[C@H](N(C)C(=O)[C@H](CC(C)C)N(C)C(=O)[C@H](C)N(C)C(=O)[C@H](OC(=O)[C@H](C(C)C)N(C)C)C(C)C)C(=O)N(C)[C@@H](C)C(=O)N1C` (NMe2Val-[dHiv][NMeA][NMeL][NMeDap][NMeA][NMeI]A[NMeL]Y(Me)[dNMeA]; lactam 4-C), the inhibition result in the test on U-87 MG [2] is “Dose-Dependent Effect”. Moreover, the inhibition result in the test with U-87 MG [3] is “inactive”. Also, the Activity result in the test with U-87 MG [4] is “Dose-Dependent Effect”.
As for `CC[C@H](C)[C@H]1C(=O)N[C@@H](C)C(=O)N(C)[C@@H](CC(C)C)C(=O)N[C@@H](Cc2ccc(OC)cc2)C(=O)N(C)[C@H](C)C(=O)O[C@H](C)[C@H](N(C)C(=O)[C@H](CC(C)C)N(C)C(=O)[C@H](C)N(C)C(=O)[C@H](OC(=O)[C@H](C(C)C)N(C)C)C(C)C)C(=O)N(C)[C@@H](C)C(=O)N1C` (NMe2Val-[dHiv][NMeA][NMeL][NMeT][NMeA][NMeI]A[NMeL]Y(Me)[dNMeA]; ester 4-C), in the test on U-87 MG [2], the inhibition result was “Dose-Dependent Effect”. Besides, the inhibition entry with U-87 MG [3] was “inactive”. Further, the Activity entry with U-87 MG [4] is “Dose-Dependent Effect”.
